Measurements as given in PubChem BioAssay AID1963439 (Molecular Pharmacology Branch, DTP, NCI, 2024).
Where “and” joins values, the source holds several entries; their conditions need not be identical. Equal entries are not always repeated.

Tested on: NCI-H196 complex spheroids with HUVEC/MSC, growth % T/C
Experiment: Anticancer human tumor NCI-H196 cell line growth inhibition [Asc];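 note: spheroids exposed to compound for 7 days before measurement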;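 for viability, T/C: 100% = DMSO vehicle control wells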
Settings: for viability, T/C: stronger effect = lower value
Summary of the method: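 Complex spheroids combining tumor cells with HUVEC endothelial cells and human MSCs, at 37 degrees C, 5% CO2; agents tested alone or combined, half-log dilutions from at or near clinical Cmax, or 10 microM if Cmax unknown.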

[1] = curve of first compound, second compound 0.1 µM
[2] = curve of first compound, second compound 0.316 µM
[3] = curve of first compound, second compound 1 µM

`NC(=O)C(=Cn1cnc(-c2cc(C(F)(F)F)cc(C(F)(F)F)c2)n1)c1cncnc1` + CCN1C(C(=O)NC23CCC(C(=O)O)(CC2)CC3)C(c2cccc(Cl)c2F)C2(C(=O)Nc3cc(Cl)ccc32)C12CCCCC2 showed an IC50 (curve of first compound, second compound 0.03 µM) of 22.1 nM, an IC50 (curve of first compound, second compound 0.0949 µM) of 24.3 nM and an IC50 (curve of first compound, second compound 0.3 µM) of 26.2 nM. The IC50 (curve of first compound, second compound 0.949 µM) was 26.4 nM, the IC50 (curve of first compound, second compound 3 µM) was 26.8 nM and the viability, T/C (second compound 0.03 µM, first compound 0.000949 µM) was 110%. For the same compound, the viability, T/C (second compound 0.03 µM, first compound 0.003 µM) was 99.3%, the viability, T/C (second compound 0.03 µM, first compound 0.00949 µM) was 79.1% and the viability, T/C (second compound 0.03 µM, first compound 0.03 µM) was 41.6%. For the same compound, the viability, T/C (second compound 0.03 µM, first compound 0.0949 µM) was 7.35%, the viability, T/C (second compound 0.03 µM, first compound 0.3 µM) was 4.55% and the viability, T/C (second compound 0.0949 µM, first compound 0.000949 µM) was 100%. For the same compound, the viability, T/C (second compound 0.0949 µM, first compound 0.003 µM) was 103%, the viability, T/C (second compound 0.0949 µM, first compound 0.00949 µM) was 85.2% and the viability, T/C (second compound 0.0949 µM, first compound 0.03 µM) was 42.6%. It also gave a viability, T/C (second compound 0.0949 µM, first compound 0.0949 µM) of 8.3%, a viability, T/C (second compound 0.0949 µM, first compound 0.3 µM) of 3.76% and a viability, T/C (second compound 0.3 µM, first compound 0.000949 µM) of 108%. It also gave a viability, T/C (second compound 0.3 µM, first compound 0.003 µM) of 101%, a viability, T/C (second compound 0.3 µM, first compound 0.00949 µM) of 90.4% and a viability, T/C (second compound 0.3 µM, first compound 0.03 µM) of 46.1%. The viability, T/C (second compound 0.3 µM, first compound 0.0949 µM) was 4.78%, the viability, T/C (second compound 0.3 µM, first compound 0.3 µM) was 5.31% and the viability, T/C (second compound 0.949 µM, first compound 0.000949 µM) was 116%. For the same compound, the viability, T/C (second compound 0.949 µM, first compound 0.003 µM) was 109%, the viability, T/C (second compound 0.949 µM, first compound 0.00949 µM) was 93.1% and the viability, T/C (second compound 0.949 µM, first compound 0.03 µM) was 46.6%. The viability, T/C (second compound 0.949 µM, first compound 0.0949 µM) was 4.71%, the viability, T/C (second compound 0.949 µM, first compound 0.3 µM) was 5.06% and the viability, T/C (second compound 3 µM, first compound 0.000949 µM) was 124%. For the same compound, the viability, T/C (second compound 3 µM, first compound 0.003 µM) was 119%, the viability, T/C (second compound 3 µM, first compound 0.00949 µM) was 106% and the viability, T/C (second compound 3 µM, first compound 0.03 µM) was 44.6%. It also gave a viability, T/C (second compound 3 µM, first compound 0.0949 µM) of 3.65% and a viability, T/C (second compound 3 µM, first compound 0.3 µM) of 4.05%.
Work on `NC1CCC(NC2CC2c2ccccc2)CC1` (configuration not stated) + Cc1c(S(C)(=O)=O)c(-c2cc(F)cc(N3CCN(c4ccc(NS(=O)(=O)c5ccc(NC(CCN6CCC(C(=O)OCCCP(=O)(O)O)CC6)CSc6ccccc6)c(S(=O)(=O)C(F)(F)F)c5)cc4)CC3)c2)c(-c2ccc(Cl)cc2)n1C(C)C yielded an IC50 [1] of over 100 nM, an IC50 [2] of over 100 nM and an IC50 [3] of over 100 nM. For the same compound, the IC50 (curve of first compound, second compound 3.16 µM) was over 100 nM, the IC50 (curve of first compound, second compound 10 µM) was over 100 nM and the viability, T/C (second compound 0.1 µM, first compound 0.000316 µM) was 91.7%. The viability, T/C (second compound 0.1 µM, first compound 0.001 µM) was 100%, the viability, T/C (second compound 0.1 µM, first compound 0.00316 µM) was 84.5% and the viability, T/C (second compound 0.1 µM, first compound 0.01 µM) was 93.7%. The viability, T/C (second compound 0.1 µM, first compound 0.0316 µM) was 93.1%, the viability, T/C (second compound 0.1 µM, first compound 0.1 µM) was 85.7% and the viability, T/C (second compound 0.316 µM, first compound 0.000316 µM) was 91.8%. The viability, T/C (second compound 0.316 µM, first compound 0.001 µM) was 88.7%, the viability, T/C (second compound 0.316 µM, first compound 0.00316 µM) was 97% and the viability, T/C (second compound 0.316 µM, first compound 0.01 µM) was 96.7%. The viability, T/C (second compound 0.316 µM, first compound 0.0316 µM) was 97.5%, the viability, T/C (second compound 0.316 µM, first compound 0.1 µM) was 91.6% and the viability, T/C (second compound 1 µM, first compound 0.000316 µM) was 89.1%. It also gave a viability, T/C (second compound 1 µM, first compound 0.001 µM) of 88.7%, a viability, T/C (second compound 1 µM, first compound 0.00316 µM) of 89.8% and a viability, T/C (second compound 1 µM, first compound 0.01 µM) of 85.1%. For the same compound, the viability, T/C (second compound 1 µM, first compound 0.0316 µM) was 87.5%, the viability, T/C (second compound 1 µM, first compound 0.1 µM) was 80% and the viability, T/C (second compound 3.16 µM, first compound 0.000316 µM) was 79.4%. The viability, T/C (second compound 3.16 µM, first compound 0.001 µM) was 86.6%, the viability, T/C (second compound 3.16 µM, first compound 0.00316 µM) was 79.2% and the viability, T/C (second compound 3.16 µM, first compound 0.01 µM) was 75.9%. The viability, T/C (second compound 3.16 µM, first compound 0.0316 µM) was 78%, the viability, T/C (second compound 3.16 µM, first compound 0.1 µM) was 76% and the viability, T/C (second compound 10 µM, first compound 0.000316 µM) was 69.7%. For the same compound, the viability, T/C (second compound 10 µM, first compound 0.001 µM) was 73.5%, the viability, T/C (second compound 10 µM, first compound 0.00316 µM) was 69.3% and the viability, T/C (second compound 10 µM, first compound 0.01 µM) was 74%. The viability, T/C (second compound 10 µM, first compound 0.0316 µM) was 76.6% and the viability, T/C (second compound 10 µM, first compound 0.1 µM) was 71.1%.
In the case of `NC1CCC(NC2CC2c2ccccc2)CC1` (configuration not stated), the viability, T/C (compound 0.000316 µM) is reported as 103% and 108% and 100%, the viability, T/C (compound 0.001 µM) is reported as 93.8% and 106% and 108% and the viability, T/C (compound 0.00316 µM) is reported as 108% (2×) and 97.2%. For the same compound, the viability, T/C (compound 0.01 µM) was 93% and 98.4% and 103%, the viability, T/C (compound 0.0316 µM) was 99.4% and 105% and 114% and the viability, T/C (compound 0.1 µM) was 92.6% and 112% and 92.1%. The IC50 (curve of compound) was over 100 nM.
For `CCN1C(C(=O)NC23CCC(C(=O)O)(CC2)CC3)C(c2cccc(Cl)c2F)C2(C(=O)Nc3cc(Cl)ccc32)C12CCCCC2` (configuration not stated) + CNC(C)C(=O)NC1CN(S(=O)(=O)c2cccc(S(=O)(=O)N3CCC4CCC(C(=O)NC(c5ccccc5)c5ccccc5)N4C(=O)C(NC(=O)C(C)NC)C3)c2)CCC2CCC(C(=O)NC(c3ccccc3)c3ccccc3)N2C1=O, the IC50 (curve of first compound, second compound 0.01 µM) was under 9.49 nM, the IC50 (curve of first compound, second compound 0.0316 µM) was under 9.49 nM and the IC50 [1] was under 9.49 nM. For the same compound, the IC50 [2] was under 9.49 nM, the IC50 [3] was under 9.49 nM and the viability, T/C (second compound 0.01 µM, first compound 0.00949 µM) was 6.77%. For the same compound, the viability, T/C (second compound 0.01 µM, first compound 0.03 µM) was 8.8%, the viability, T/C (second compound 0.01 µM, first compound 0.0949 µM) was 6.77% and the viability, T/C (second compound 0.01 µM, first compound 0.3 µM) was 4.95%. The viability, T/C (second compound 0.01 µM, first compound 0.949 µM) was 4.31%, the viability, T/C (second compound 0.01 µM, first compound 3 µM) was 2.99% and the viability, T/C (second compound 0.0316 µM, first compound 0.00949 µM) was 4.48%. For the same compound, the viability, T/C (second compound 0.0316 µM, first compound 0.03 µM) was 6.6%, the viability, T/C (second compound 0.0316 µM, first compound 0.0949 µM) was 5.08% and the viability, T/C (second compound 0.0316 µM, first compound 0.3 µM) was 5.41%. It also gave a viability, T/C (second compound 0.0316 µM, first compound 0.949 µM) of 2.77%, a viability, T/C (second compound 0.0316 µM, first compound 3 µM) of 1.77% and a viability, T/C (second compound 0.1 µM, first compound 0.00949 µM) of 3.71%. It also gave a viability, T/C (second compound 0.1 µM, first compound 0.03 µM) of 4.01%, a viability, T/C (second compound 0.1 µM, first compound 0.0949 µM) of 3.17% and a viability, T/C (second compound 0.1 µM, first compound 0.3 µM) of 3.11%. The viability, T/C (second compound 0.1 µM, first compound 0.949 µM) was 1.37%, the viability, T/C (second compound 0.1 µM, first compound 3 µM) was 2.04% and the viability, T/C (second compound 0.316 µM, first compound 0.00949 µM) was 2.48%. The viability, T/C (second compound 0.316 µM, first compound 0.03 µM) was 4.45%, the viability, T/C (second compound 0.316 µM, first compound 0.0949 µM) was 3.05% and the viability, T/C (second compound 0.316 µM, first compound 0.3 µM) was 1.97%. For the same compound, the viability, T/C (second compound 0.316 µM, first compound 0.949 µM) was 0.96%, the viability, T/C (second compound 0.316 µM, first compound 3 µM) was 1.45% and the viability, T/C (second compound 1 µM, first compound 0.00949 µM) was 2.97%. It also gave a viability, T/C (second compound 1 µM, first compound 0.03 µM) of 4.34%, a viability, T/C (second compound 1 µM, first compound 0.0949 µM) of 2.12% and a viability, T/C (second compound 1 µM, first compound 0.3 µM) of 1.73%. For the same compound, the viability, T/C (second compound 1 µM, first compound 0.949 µM) was 1.39% and the viability, T/C (second compound 1 µM, first compound 3 µM) was 1.39%.
